Source: US10758609B2, “Cross-reactive T-cell epitopes of HIV, SIV, and FIV for vaccines in humans and cats” (priority 2015, dated 2020)
Residues, ends and D or L forms follow the SMILES beside them.

Legend:
[1] = test system: CD4^+ T cells from HIV^+ subjects; conditions: HIV+ human subjects; for CyCD4: CD4+ T-cell cytolysin/cytotoxins (perforin, GrzA & B), frequency of responders: HIV-1 epitope peptide, threshold ≥0.2%; for CyCD4 (cytolysin and cytotoxin production of CD4+ T cells), frequency of responders: HIV-1 peptides
Method: (§1) The overlapping peptide pools of FIV and HIV-1 structural and enzyme proteins were used to stimulate the […] (PBMC) and the T cells from HIV^+ subjects as previously described for epitope mapping of HIV-1 and FIV p24 and reverse transcriptase (RT) (Sanou et al., 2013; Roff et al., 2015). The individual peptides in those peptide pools with positive responses to either interferon-γ (IFNγ) production and/or T-cell proliferation were determined with IFNγ ELISpot analysis and CFSE-based CD3^+CD4^+ and CD3^+CD8^+ T-cell proliferation analyses followed by the FACS-based intracellular staining (ICS) for cytolysin (perforin) and cytotoxin (granzyme A [GrzA] and GrzB) (Sanou et al., 2013; Roff et al., 2015). Besides viral p24 and RT proteins, the identical approach was used to identify anti-HIV/FIV T-cell epitopes on viral matrix (MA), nucleocapsid (NC), protease (PR), RNAase, integrase (IN), surface envelope (SU Env), and transmembrane envelope (TM Env) (FIG. 12).
(§2) Since our goal is to develop HIV vaccine for human use, the HIV peptides (Table 10) counterpart of the cross-reactive FIV peptides shown in Table 9 were tested with PBMC and T cells from HIV^+ subjects. The immune functions analyzed were human IFNγ production by ELISpot, cytolysin/cytotoxin production by ICS, and CFSE-based proliferation of CD3^+CD4^+ and CD3^+CD8^+ T cells from HIV^+ subjects (Table 10, the first set of results). In addition, the Los Alamos National Laboratories (LANL) database was used to identify the HLA allele(s) of the HIV epitope sequence with CTL activity that can exist within the sequence of the conserved counterpart HIV peptide (Table 9, LANL CTL). The bold HLA class-I supertypes and the bold 2-digit alleles are those on the “Optimal CD8^+ CTL Epitopes” list and those without bold are alleles for potential CTL epitope. […] The HLA class II such as HLA-DRB1 has yet to be fully classified into supertypes, and therefore the 4-digit resolution nomenclatures for the HLA-DRB1 alleles are shown.
(§3) The counterpart HIV-1 peptides of the FIV peptides were also tested for immunogenicity using PBMC and T cells from HIV^+ human subjects. […] The HRT7-1 and HRT7-2 were also tested with cells from HIV^+ subjects on ART. The threshold for positive IFNγ ELISpot response is ≥75 spot-forming units (SFU) per 10^6 PBMC. The threshold for CFSE-based CD4^+ (CD4^+ T) and CD8^+ (CD8^+ T) T-cell proliferation is ≥2% CD4^+ T-cell CFSE^low or CD8^+ T-cell CFSE^low. The threshold of intracellular cytokine staining (ICS) of FACS-based cytolysin (perforin) and cytotoxins (granzymes A and B) in CD4^+ T cells (CyCD4) and CD8^+ T cells (CyCD8) is ≥0.2%. […] The nine HIV-1 peptides in black are the counterpart FIV peptides used in the current MAP vaccine trial, whereas the 13 peptides in blue were not.

[2] = test system: CD8^+ T cells from HIV^+ subjects; assay: FACS-based intracellular staining (ICS) for cytolysin (perforin) and cytotoxins (GrzA, GrzB) in CD8+ T cells; conditions: HIV-1 epitope peptide; HIV+ human subjects; threshold ≥0.2%
Method: as §1, §2
The threshold for positive IFNγ and IL2 ELISpot responses is ≥50 spot-forming units (SFU) per 10^6 PBMC. The threshold for CFSE-based CD4^+ and CD8^+ T-cell proliferation is ≥2% CD4^+ T-cell CFSE^low or CD8^+ T-cell CFSE^low. The threshold of FACS-based intracellular cytokine staining (ICS) is ≥0.2%. […] The nine FIV peptides in black were used in the current MAP vaccine trial, whereas the 13 peptides in blue were not used. […] The MAPs and their corresponding peptide(s) were also tested for their ability to enhance or suppress in vitro FIV infection of feline PBMC (E/S of peptides and E/S of MAP).
as §3

Row | Structure (SMILES) | CyCD4: CD4+ T-cell cytolysin/cytotoxins (perforin, GrzA & B), frequency of responders [1] | CyCD8: CD8+ T-cell cytolysin/cytotoxins (perforin, GrzA & B), frequency of responders [2] | CyCD4 (cytolysin and cytotoxin production of CD4+ T cells), frequency of responders [1]
1 | CC[C@H](C)[C@H](NC(=O)[C@H](CCCCN)NC(=O)[C@@H](NC(=O)[C@@H](NC(=O)[C@H](CCCCN)NC(=O)[C@H](Cc1ccc(O)cc1)NC(=O)[C@H](CCCCN)NC(=O)[C@H](Cc1ccc(O)cc1)NC(=O)[C@H](CC(C)C)NC(=O)[C@H](CCC(=O)O)NC(=O)[C@H](CO)NC(=O)[C@H](CCCNC(=N)N)NC(=O)[C@H](Cc1c[nH]c2ccccc12)NC(=O)[C@H](CC(N)=O)NC(=O)[C@@H](N)CC(=O)O)C(C)C)C(C)C)C(=O)O [HSU4] (H-DNWRSELYKYKVVKI-OH; N-terminus and C-terminus assumed) | − (0%-1.4% (−)) | + (12.5%-25% (+)) | 
2 | CC(C)C[C@H](NC(=O)[C@H](C)NC(=O)[C@@H](N)CCC(=O)O)C(=O)N[C@@H](CC(C)C)C(=O)N[C@@H](CC(=O)O)C(=O)N[C@H](C(=O)NCC(=O)N[C@@H](C)C(=O)N[C@@H](CC(=O)O)C(=O)N[C@@H](CC(=O)O)C(=O)N[C@H](C(=O)N[C@H](C(=O)N[C@@H](CC(C)C)C(=O)N[C@@H](CCC(=O)O)C(=O)O)C(C)C)[C@@H](C)O)[C@@H](C)O [HPR2] (H-EALLDTGADDTVLE-OH; N-terminus and C-terminus assumed) | − (0%-1.4% (−)) | − (0%-1.4% (−)) | 
3 | CC[C@H](C)[C@H](NC(=O)CNC(=O)[C@H](CC(C)C)NC(=O)[C@H](CC(C)C)NC(=O)[C@H](CCC(N)=O)NC(=O)[C@H](CCC(N)=O)NC(=O)[C@H](CC(=O)O)NC(=O)[C@H](CCCCN)NC(=O)[C@H](CC(C)C)NC(=O)[C@@H](N)Cc1ccc(O)cc1)C(=O)N[C@@H](Cc1c[nH]c2ccccc12)C(=O)NCC(=O)N[C@@H](CS)C(=O)O [HTM4-3] (H-YLKDQQLLGIWGC-OH; N-terminus and C-terminus assumed) | − (0%-1.4% (−)) | + (12.5%-25% (+)) | 
4 | CC[C@H](C)[C@H](NC(=O)[C@H](CCCNC(=N)N)NC(=O)[C@@H](N)CC(C)C)C(=O)N[C@H](C(=O)N[C@@H](Cc1ccccc1)C(=O)N[C@@H](C)C(=O)N[C@H](C(=O)N[C@@H](CC(C)C)C(=O)N[C@@H](CO)C(=O)N[C@H](C(=O)N[C@H](C(=O)N[C@@H](CC(N)=O)C(=O)N[C@@H](CCCNC(=N)N)C(=O)N[C@H](C(=O)N[C@@H](CCCNC(=N)N)C(=O)N[C@@H](CCC(N)=O)C(=O)O)C(C)C)C(C)C)[C@@H](C)CC)C(C)C)C(C)C [HTM8(20)] (H-LRIVFAVLSIVNRVRQ-OH; N-terminus and C-terminus assumed) | − (0%-1.4% (−)) | − (0%-1.4% (−)) | 
5 | CC(C)[C@H](NC(=O)CNC(=O)[C@H](CO)NC(=O)[C@H](CCCNC(=N)N)NC(=O)[C@H](Cc1ccccc1)NC(=O)[C@H](CO)NC(=O)[C@H](CCC(=O)O)NC(=O)[C@H](CCC(=O)O)NC(=O)[C@@H]1CCCN1C(=O)[C@@H]1CCCN1C(=O)[C@H](C)NC(=O)[C@@H](N)[C@@H](C)O)C(=O)N[C@@H](CCC(=O)O)C(=O)N[C@H](C(=O)N[C@H](C(=O)N[C@H](C(=O)O)[C@@H](C)O)[C@@H](C)O)[C@@H](C)O [HNC2] (H-TAPPEESFRSGVETTT-OH; N-terminus and C-terminus assumed) | − (0%-1.4% (−)) | + (12.5%-25% (+)) | 
6 | CC[C@H](C)[C@H](NC(=O)CN)C(=O)N[C@@H](CCCNC(=N)N)C(=O)N[C@@H](Cc1ccc(O)cc1)C(=O)N[C@@H](CCC(N)=O)C(=O)N[C@@H](Cc1ccc(O)cc1)C(=O)N[C@@H](CC(N)=O)C(=O)N[C@H](C(=O)N[C@@H](CC(C)C)C(=O)N1CCC[C@H]1C(=O)N[C@@H](CCC(N)=O)C(=O)NCC(=O)N[C@@H](Cc1c[nH]c2ccccc12)C(=O)N[C@@H](CCCCN)C(=O)NCC(=O)O)C(C)C [HRT7-1] | − (0%-1.4% (−)) | − (0%-1.4% (−)) | 
7 | CSCC[C@H](NC(=O)[C@@H](NC(=O)[C@H](CC(N)=O)NC(=O)[C@H](CC(C)C)NC(=O)[C@H](CC(=O)O)NC(=O)[C@H](CCC(N)=O)NC(=O)[C@@H]1CCCN1)[C@@H](C)O)C(=O)N[C@@H](CC(C)C)C(=O)N[C@@H](CC(N)=O)C(=O)N[C@H](C(=O)N[C@H](C(=O)NCC(=O)NCC(=O)N[C@@H](Cc1c[nH]cn1)C(=O)N[C@@H](CCC(N)=O)C(=O)O)C(C)C)[C@@H](C)O [Hp4-3] (H-PQDLNTMLNTVGGHQ-OH; N-terminus and C-terminus assumed) | − (0%-1.4% (−)) | ++ (25.1%-40% (++)) | 
8 | CC[C@H](C)[C@H](NC(=O)[C@H](CC(=O)O)NC(=O)[C@@H](NC(=O)[C@H](C)NC(=O)[C@@H](NC(=O)[C@@H](NC(=O)[C@H](CC(=O)O)NC(=O)[C@@H](NC(=O)[C@@H](NC(=O)[C@H](CCCNC(=N)N)NC(=O)[C@H](CCC(=O)O)NC(=O)CN)[C@@H](C)CC)C(C)C)[C@@H](C)CC)[C@@H](C)CC)[C@@H](C)O)C(=O)N[C@@H](CCC(N)=O)C(=O)N[C@H](C(=O)N[C@@H](CCCCN)C(=O)O)[C@@H](C)O [HIN7-1] (H-GERIVDIIATDIQTK-OH; N-terminus and C-terminus assumed) | − (0%-1.4% (−)) | + (12.5%-25% (+)) | — (0%-1.4%(—))
9 | CSCC[C@H](NC(=O)[C@H](Cc1c[nH]c2ccccc12)NC(=O)[C@H](CC(N)=O)NC(=O)[C@H](CCCCN)NC(=O)[C@@H](N)C(C)C)C(=O)N[C@H](C(=O)N[C@@H](CCC(=O)O)C(=O)N[C@H](C(=O)N[C@@H](CC(C)C)C(=O)N[C@@H](CC(C)C)C(=O)N[C@H](C(=O)N[C@@H](CCC(N)=O)C(=O)N[C@@H](CC(N)=O)C(=O)N[C@@H](C)C(=O)N[C@@H](CC(N)=O)C(=O)O)C(C)C)[C@@H](C)O)[C@@H](C)O [Hp14-3(15-3)] (H-VKNWMTETLLVQNAN-OH; N-terminus and C-terminus assumed) |  |  | ++++ (>54% (++++))
10 | CSCC[C@H](NC(=O)[C@H](Cc1c[nH]c2ccccc12)NC(=O)[C@H](CC(N)=O)NC(=O)[C@H](CCCCN)NC(=O)[C@@H](NC(=O)[C@H](CCC(=O)O)NC(=O)[C@H](CCC(N)=O)NC(=O)[C@H](CO)NC(=O)[C@H](C)N)C(C)C)C(=O)N[C@H](C(=O)N[C@@H](CCC(=O)O)C(=O)N[C@H](C(=O)N[C@@H](CC(C)C)C(=O)N[C@@H](CC(C)C)C(=O)N[C@H](C(=O)O)C(C)C)[C@@H](C)O)[C@@H](C)O [Hp14-3 (15-2)] (H-ASQEVKNWMTETLLV-OH) | ++++ (>54% (++++)) | ++++ (>54% (++++)) | 
11 | CC[C@H](C)[C@H](NC(=O)[C@H](C)NC(=O)[C@@H]1CCCN1C(=O)[C@H](CO)NC(=O)CNC(=O)[C@H](CCCCN)NC(=O)[C@H](Cc1c[nH]c2ccccc12)NC(=O)CNC(=O)[C@H](CCC(N)=O)NC(=O)[C@@H]1CCCN1C(=O)[C@H](CC(C)C)NC(=O)[C@@H](NC(=O)[C@@H](N)CC(N)=O)C(C)C)C(=O)N[C@@H](Cc1ccccc1)C(=O)O [HRT7-2] | − (0%-1.4% (−)) | − (0%-1.4% (−)) | 
